Data on one compound can be found in article PMC9981512, “Thin film hydration versus modified spraying technique to fabricate intranasal spanlastic nanovesicles for rasagiline mesylate brain delivery: Characterization, statistical optimization, and in vivo pharmacokinetic evaluation” (Drug Delivery and Translational Research, 2022).

Data set [1] in a line: In vitro release of RM, modified Franz diffusion cells with dialysis membrane, simulated nasal fluid. The format is physicochemical. The note with it: simulated nasal fluid pH 6.5, 37 °C, 50 rpm. How it is done:
The in vitro release of RM from the optimized systems was investigated using modified Franz diffusion cells (Franz diffusion cell with dialysis membrane). In a few words, an exact volume of each optimized system was placed in the donor cell, and the dialysis process was performed against 50 mL of simulated nasal fluid (SNF; CaCl2.2H2O 0.32 mg/mL, NaCl 7.45 mg/mL, KCl 1.29 mg/mL, pH 6.5) maintained at 37 °C while stirring at 50 rpm. Three milliliter sample was withdrawn at each time interval (0.25, 0.5, 1, 1.5, 2, 3, 4, 6, 8, 10 and 12 h) and replaced with equal volumes of drug free SNF [39]. The amount of RM in each sample was measured spectrophotometrically at λmax 265 nm. The in vitro release profiles of the two optimized systems were compared to RM aqueous solution profile. Furthermore, the mean dissolution time (MDT) was calculated for both systems following Eq. (2):2 MDT=∑j=1ntj∗ΔMj/∑j=1nΔMj where j is the sample number, tj* is the midpoint time between t and tj-1 that can be calculated by (t + tj-1/2), n is the number of release samples, and ∆Mj is the additional amount released between t and tj-1. The higher the MDT value, the slower the drug release rate.

The nature of data set [2]: In vivo pharmacokinetics and brain targeting in rats, LC-MS/MS of brain homogenate and plasma. The note with it: rat, RM in brain, intravenous, 0.05 mg/kg/day. As to the method: In order to evaluate the in vivo performance of the selected MST 2, an in vivo pharmacokinetics study was performed to measure the bioavailability and brain-targeting ability of the selected system after intranasal administration into rats. The study protocol was previously approved by the research ethics committee for the experimental and clinical studies at the Faculty of Pharmacy Cairo University with approval code (PI 2680). Briefly, forty-eight rats were divided into two groups (n = 24), and each group was divided into eight subgroups (n = 3). The average weight of the rats was 180 gm, and they were subjected to 12-h cycles of light/darkness. They were kept in cages with free access to food and water. The relative humidity was maintained in range 40–60%, and the temperature ranged from 20 to 25 °C during the experiment.
The first group was administered the optimized MST 2 equivalent to 0.05 mg/kg/day of RM [44] intranasally (IN) using a polyethylene tube which was attached to Hamilton syringe, whereas the second group was administered the same dose of an intravenous (IV) RM aqueous solution through the tail vein. Blood samples were collected from the rats at specified time intervals (0.25, 0.5, 1, 1.5, 2, 4, 8, and 12 h) via the puncture of lateral vesicular vein, centrifuged at 4000 rpm for 15 min, and separated to obtain the plasma that was then frozen at –80 °C until further investigations. Additionally, six rats (three of each subgroup) were anaesthetized and sacrificed to separate the brain tissues at 0.5, 1, 2, 4, and 8 h. The brain tissues were washed twice with normal saline and then weighed. An equal weight of normal saline was added to each brain sample, which was then homogenized (Heidolph DIAX 900, Heidolph Instruments, Schwabach, Germany) and kept frozen at – 80 °C until analysis. RM levels in plasma samples and brain homogenates were measured by a validated liquid chromatography-mass spectrometry (LC–MS/MS) method.
Calibration curves of RM in plasma and brain homogenate were constructed using clonazepam as internal standard (IS). Briefly, specific volumes of RM stock solution were mixed with one hundred microliter of clonazepam stock solution (100 ng/mL) and then spiked into 0.5 mL plasma or brain homogenate to obtain the following concentrations: 0.1, 1, 10, 20, 100, and 1000 ng/mL. For RM extraction from the samples, 0.5 mL of plasma samples or brain homogenates was mixed with 100 µL of clonazepam solution as IS and 4 mL of ethyl acetate to precipitate the proteins followed by vortexing (Stuart SA8, BiBBY Sterlin Ltd., UK) for 5 min and centrifugation for 10 min at 3000 rpm. The supernatant was transferred to a new tube to evaporate the organic solvent under vacuum using a vacuum concentrator (Eppendorf 5301, Hamburg, Germany). The obtained dry residue was reconstituted in 0.5 mL of the mobile phase (acetonitrile: 0.1% formic acid solution in water at a ratio (80:20 v/v)) after then, 9 µL of the obtained solution was injected into (LC–MS/MS) for analysis.
The analysis of RM in plasma samples and brain homogenates was done by LC–MS/MS (Shimadzu CBM20A, Japan) fitted with mass spectrometer AB Sciex 4000 (Sciex Instruments, USA) and auto-sampler (Shimadzu SIL20A, Japan). The mass spectrometer was equipped with turbo ion spray having a positive polarity with temperature set at 500 °C. The samples were analyzed by injecting aliquots of 9 µL, and the mobile phase flow rate was adjusted at 0.8 mL/min. The transition was from 172.036 to 117.000 m/z for RM and from 316.024 to 270 m/z in case of clonazepam. The analysis of the obtained results was done using Analyst software (version 1.6.3, Sciex Instruments, Framingham, USA).
Non-compartmental pharmacokinetic model was applied to analyze RM plasma and brain levels using Kinetica software (version 2000, Arlington, USA). […]

For data set [3] the following is noted: after oral administration; cited from earlier work.

Counter-ions that a name gives are not always drawn. Like-named read-outs stand apart in the source and are kept apart here. A value given as a limit tells only on which side of the number the result lay.

As to `C#CCN[C@@H]1CCc2ccccc21` [RM, Rasagiline mesylate], in data set [1], the “mean dissolution time (MDT)” value is 0.333 ± 0.0991 h and the “time of complete release of RM” value was 4 h. For the same compound, in data set [2], the AUC(0-inf) worked out at 28 ± 1.84 ng·h/mL, the peak level (Cmax) was 15.8 ± 0.34 ng/mL and the Tmax was determined as 0.5 h. Besides, the k el in data set [2] (read-out: K (hr^−1) elimination rate constant (converted)) is 0.377 h⁻¹. Besides, in data set [2] (read-out: MRT (hr) mean residence time), the MRT worked out at 2.27 ± 0.71 h. Further, the half-life in data set [2] (read-out: T1/2 half (converted)) was 1.83 ± 0.24 h. In addition, in data set [3], the half-life was 1.5 to 3.5 h and the “time to reach maximum concentration in plasma” value was ≤ 1 h.

For orientation: AUC(0-inf) means total exposure, with the tail of the curve extrapolated. A higher AUC(0-inf) goes with more exposure. Usually Cmax stands for the maximum level reached in the sampled fluid or tissue. Broadly, the Tmax is the time at which the peak concentration occurs. As usually defined, the MRT is a mean duration of stay, worked out from the concentration-time curve.
